According to US20220213052A1, “INHIBITORS OF RNA-BINDING PROTEINS, COMPOSITIONS THEREOF, AND THERAPEUTIC USES THEROF” (The University of North Carolina at Chapel Hill, priority 2019, published 2022):
Where a name gives a salt, the structure may show the parent alone. Read-outs that look alike come from different tables or passages of the source.

What was measured:
Musashi 2 (Msi2) = Musashi 2 (Msi2) (Homo sapiens, UniProt Q96DH6); assay: Msi2 FP assay; type: binding
Experimental: (§1) With the FP assay of HuR-Msi1ARE binding, the inhibition of the HuR-Msi1ARE interaction by various compounds of the present technology was assessed. Similar FP assays for Musashi 2 (Msi2) and for RNA-binding protein Lin-28 homolog B (LIN28B) were also performed on various compounds of the present technology. The results of such assays for HuR are provided in Table 1 alongside the compound structures as well as ID numbers for ease of reference; the results of such assays for Msi1, Msi2, and LIN28B are provided in Table 2.

[1] = molecular target: T1, RNA-binding protein Lin-28 homolog B (LIN28B) (Homo sapiens, UniProt Q6ZN17); assay: LIN28B FP assay
T1 sequence (Q6ZN17 1-250): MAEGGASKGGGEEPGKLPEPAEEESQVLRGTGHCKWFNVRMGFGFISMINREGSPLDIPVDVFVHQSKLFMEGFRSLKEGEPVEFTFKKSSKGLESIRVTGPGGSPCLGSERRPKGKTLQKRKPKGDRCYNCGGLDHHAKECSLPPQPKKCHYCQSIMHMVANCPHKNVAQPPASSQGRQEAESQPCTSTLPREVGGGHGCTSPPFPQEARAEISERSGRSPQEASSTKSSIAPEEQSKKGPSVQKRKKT
Experimental: as §1

[2] = molecular target: T2, full-length human HuR protein (Homo sapiens, UniProt Q15717); assay: FP assay of HuR-Msi1 ARE binding inhibition; settings: HuR-Msi1 ARE interaction; read-out: HuR Ki via FP assay
T2 construct: full-length human HuR protein was produced by the KU COBRE-PSF Protein Purification Group; made in house
From the text: A fluorescence polarization (FP)-based binding assay was utilized to assess the inhibition of HuR protein interaction with the ARE site of Msi1 mRNA (“HuR-Msi1^ARE”) by compounds of interest. Briefly, full-length human HuR protein was produced by the KU COBRE-PSF Protein Purification Group and Bcl2, Msi1 and XIAP mRNA sequences (16 nt) were designed based on literature precedent^23,24,31,32. Fluorescein labeled RNAs were purchased from Dharmacon with the following sequences: Msi1 RNA: 5′-[…]-3′-fluorescein; Bcl-2 RNA: 5′-[…]-3′-fluorescein; XIAP RNA: 5′-[…] UGUC-3′-fluorescein, and a 16-nt degenerative RNA with 3′-fluorescein label was used as a negative control.
as §1

[3] = test system: triple-negative breast cancer cell line MDA-MB-231; assay: Cytotoxicity assay (WST-8), MDA-MB-231; type: cell-based; settings: Homo sapiens, 96 h incubation
Experimental: The cytotoxicity of various compounds of the present technology in several cancer cell lines (pancreatic cancer cell line MIAPaCa-2, triple-negative breast cancer cell line MDA-MB-231, and colon cancer cell lines HCT116, HCT116 β/W, and RKO) was assessed by a cytotoxicity assay. Cells were seeded in 96-well culture plates (3,000-5,000 cells/well) and treated with titrated compounds in triplicate. After 96 h incubation, cell growth medium was removed and proliferation reagent WST-8 (Sigma) was added to each well and incubated at 37° C. for 1-3 h. Absorbance was then measured with a plate reader at 450 nm with correction at 650 nm. The results were expressed as the percentage of absorbance of treated wells versus that of vehicle control. IC50, the drug concentration causing 50% growth inhibition, was calculated via sigmoid curve fitting using GraphPad Prism 5.0. The results for those compounds tested against MIAPaCa-2 and MDA-MB-231 are provided in Table 1; the results for those compounds tested against colon cancer cell lines HCT116, HCT116 β/W, and RKO are provided in Table 3.

Msi1 = Msi1 (Homo sapiens, UniProt O43347); assay: Msi1 FP assay; type: binding
Experimental: as §1

[4] = cell without (RRM1) mark, read-out: Msi2 (Ki)
[5] = cell marked (RRM1), read-out: Msi2 (Ki) (RRM1)

Sequence of Musashi 2 (Msi2) (Q96DH6 whole entry, species assumed): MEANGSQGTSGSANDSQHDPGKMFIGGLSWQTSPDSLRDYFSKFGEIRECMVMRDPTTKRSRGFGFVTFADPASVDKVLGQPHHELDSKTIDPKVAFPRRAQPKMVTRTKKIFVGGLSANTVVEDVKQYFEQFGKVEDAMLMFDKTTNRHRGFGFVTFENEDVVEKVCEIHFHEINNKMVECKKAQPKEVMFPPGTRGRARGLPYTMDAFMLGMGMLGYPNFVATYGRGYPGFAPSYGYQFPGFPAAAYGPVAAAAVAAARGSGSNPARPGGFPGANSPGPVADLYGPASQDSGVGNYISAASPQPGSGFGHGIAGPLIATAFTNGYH
Sequence of Msi1 (O43347 whole entry, species assumed): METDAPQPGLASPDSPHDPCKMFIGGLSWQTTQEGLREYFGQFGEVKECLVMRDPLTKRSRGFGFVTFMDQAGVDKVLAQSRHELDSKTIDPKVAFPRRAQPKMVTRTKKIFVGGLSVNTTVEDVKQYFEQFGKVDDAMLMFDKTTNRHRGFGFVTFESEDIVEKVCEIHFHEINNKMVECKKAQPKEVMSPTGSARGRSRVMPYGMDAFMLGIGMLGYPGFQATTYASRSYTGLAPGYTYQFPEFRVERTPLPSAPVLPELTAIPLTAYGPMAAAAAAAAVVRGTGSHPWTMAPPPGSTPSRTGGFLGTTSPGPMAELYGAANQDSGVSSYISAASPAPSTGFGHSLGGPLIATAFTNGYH
T2 sequence (Q15717 whole entry): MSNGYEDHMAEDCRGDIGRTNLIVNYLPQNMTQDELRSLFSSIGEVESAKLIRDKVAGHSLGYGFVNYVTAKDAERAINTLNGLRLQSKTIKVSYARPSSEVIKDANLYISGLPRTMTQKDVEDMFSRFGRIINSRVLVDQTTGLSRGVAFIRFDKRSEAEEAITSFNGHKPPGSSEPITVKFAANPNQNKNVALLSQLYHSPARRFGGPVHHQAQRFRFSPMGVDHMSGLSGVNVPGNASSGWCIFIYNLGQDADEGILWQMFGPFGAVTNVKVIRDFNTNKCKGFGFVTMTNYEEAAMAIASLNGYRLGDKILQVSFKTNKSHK

| Ki (Musashi 2 (Msi2); [4]) [µM] | Ki [1] [µM] | Ki [2] [µM] | Ki (Msi1) [µM] | Ki (Musashi 2 (Msi2); [5]) [µM] | SMILES | IC50 [3] [µM] |
| --- | --- | --- | --- | --- | --- | --- |
| – | > 20 | 0.51 | 4.87 | 2.64 | O=C(/C=C/c1cc2cc(NC(=O)c3ccc(C(F)(F)F)cc3)ccc2s1)NO [KH-32] | 2.62 |
| > 20 | > 20 | 3.23 | – | – | O=C(Nc1ccc2sc(C(=O)NO)cc2c1)c1ccccn1 [KH-60, N-(2-(hydroxycarbamoyl)benzo[b]thiophen-5-yl)picolinamide] | 4.43 |
| > 20 | > 20 | 2.51 | > 20 | – | O=C(CCc1cc2cc(NC(=O)c3ccc(C(F)(F)F)cc3)ccc2s1)NO [KH-29, N-(2-(3-(hydroxyamino)-3-oxopropyl)benzo[b]thiophen-5-yl)-4-(trifluoromethyl)benzamide] | 12.4 |
| > 20 | > 20 | 4.44 | – | – | O=C(/C=C/c1cc2cc(NC(=O)c3ccccn3)ccc2s1)NO [KH-47, (E)-N-(2-(3-(hydroxyamino)-3-oxoprop-1-en-1-yl)benzo[b]thiophen-5-yl) picolinamide hydrochloride] | 3.11 |
| > 20 | > 20 | 0.69 | – | – | CN(C)c1ccc(C(=O)Nc2ccc3[nH]c(/C=C/C(=O)NO)cc3c2)cc1 [KH-52, (E)-4-(dimethylamino)-N-(2-(3-(hydroxyamino)-3-oxoprop-1-en-1-yl)-1H-indol-5-yl)benzamide] | 8.91 |
| > 20 | > 20 | 3.31 | – | – | CN(C)c1ccc(C(=O)Nc2ccc3[nH]c(C(=O)NO)cc3c2)cc1 [KH-57, 5-(4-(dimethylamino)benzamido)-N-hydroxy-1H-indole-2-carboxamide] | 11.3 |
| > 20 | 5.84 | 1.29 | – | – | O=C(/C=C/c1cc2cc(NC(=O)C3CCCCC3)ccc2s1)NO [KH-46, (E)-N-(2-(3-(hydroxyamino)-3-oxoprop-1-en-1-yl)benzo[b]thiophen-5-yl) cyclohexanecarboxamide] | 3.5 |
| – | 8.79 | 0.34 | – | 3.91 | CC(C)(C)c1ccc(C(=O)Nc2ccc3[nH]c(/C=C/C(=O)NO)cc3c2)cc1 [KH-48, (E)-4-(tert-butyl)-N-(2-(3-(hydroxyamino)-3-oxoprop-1-en-1-yl)-1H-indol-5-yl)benzamide] | 2.24 |
| – | 2.7 | 0.44 | – | 2.9 | CC(C)(C)c1ccc(C(=O)Nc2ccc3sc(C(=O)NO)cc3c2)cc1 [KH-43, 5-(4-(tert-butyl)benzamido)-N-hydroxybenzo[b]thiophene-2-carboxamide] | 3.71 |

Continued, compound first:

| SMILES | Ki (Musashi 2 (Msi2); [4]) [µM] | Ki [1] [µM] | Ki [2] [µM] | Ki (Msi1) [µM] | Ki (Musashi 2 (Msi2); [5]) [µM] | IC50 [3] [µM] |
| --- | --- | --- | --- | --- | --- | --- |
| O=C(Nc1ccc2[nH]c(C(=O)O)cc2c1)c1ccccn1 [KH-56A, 5-(picolinamido)-1H-indole-2-carboxylic acid hydrochloride] | > 20 | > 20 | > 20 | – | – | > 100 |
| CC(C)(C)c1cccc(C(=O)Nc2ccc3sc(CCC(=O)O)cc3c2)c1 [KH-30A, 3-(5-(3-(tert-butyl)benzamido)benzo[b]thiophen-2-yl)propanoic acid] | > 20 | > 20 | > 20 | > 20 | – | > 100 |
| NNC(=O)CCc1cc2cc(NC(=O)c3ccc(C(F)(F)F)cc3)ccc2s1 [KH-29E] | > 20 | > 20 | 3.32 | > 20 | – | 71.2 |
| O=C(O)CCc1cc2cc(NC(=O)c3ccc(F)cc3)ccc2s1 [KH-28A, 3-(5-(4-Fluorobenzamido)benzo[b]thiophen-2-yl)propanoic acid] | > 20 | > 20 | > 20 | > 20 | – | – |
| CC(C)(C)c1ccc(C(=O)Nc2ccc3[nH]c(C(=O)O)cc3c2)cc1 [KH-39A, 5-(4-(tert-butyl)benzamido)-1H-indole-2-carboxylic acid] | – | > 20 | 12.5 | > 20 | 22 | > 100 |
| CN(C)c1ccc(C(=O)Nc2ccc3sc(CCC(=O)O)cc3c2)cc1 [KH-38A, 3-(5-(4-(Dimethylamino)benzamido)benzo[b]thiophen-2-yl)propanoic acid] | > 20 | > 20 | > 20 | > 20 | – | > 100 |
| Cc1ccc(C(=O)Nc2ccc3sc(CCC(=O)O)cc3c2)cc1 [KH-27A, 3-(5-(4-Methylbenzamido)benzo[b]thiophen-2-yl)propanoic acid] | > 20 | > 20 | > 20 | > 20 | – | > 100 |
| O=C(O)/C=C/c1cc2cc(NC(=O)c3ccc(F)cc3)ccc2s1 [KH-23A, (E)-3-(5-(4-Fluorobenzamido)benzo[b]thiophen-2-yl)acrylic acid] | > 20 | > 20 | > 20 | > 20 | – | – |
| CN(C)c1ccc(C(=O)Nc2ccc3sc(C(=O)O)cc3c2)cc1 [KH-58A, 5-(4-(Dimethylamino)benzamido)benzo[b]thiophene-2-carboxylic acid] | – | > 20 | 2.37 | – | 6.6 | > 100 |
| CN(C)c1ccc(C(=O)Nc2ccc3[nH]c(C(=O)O)cc3c2)cc1 [KH-57A, 5-(4-(dimethylamino)benzamido)-1H-indole-2-carboxylic acid] | – | > 20 | 0.78 | – | 2.1 | 100 |
| CC(C)(C)c1ccc(C(=O)Nc2ccc3sc(C(=O)O)cc3c2)cc1 [KH-43A, 5-(4-(tert-butyl)benzamido)benzo[b]thiophene-2-carboxylic acid] | – | > 20 | 5.08 | – | 5.25 | 90.5 |
| CN(C)c1ccc(C(=O)Nc2ccc3[nH]c(/C=C/C(=O)O)cc3c2)cc1 [KH-52A, (E)-3-(5-(4-(dimethylamino)benzamido)-1H-indol-2-yl)acrylic acid] | – | > 20 | 7.76 | – | 27.1 | > 100 |
| O=C(Nc1ccc2sc(C(=O)O)cc2c1)c1ccccn1 [KH-60A, 5-(Picolinamido)benzo[b]thiophene-2-carboxylic acid hydrochloride] | – | > 20 | 1.14 | – | 4.6 | > 100 |
| O=C(O)/C=C/c1cc2cc(NC(=O)c3ccccn3)ccc2s1 [KH-47A, (E)-3-(5-(picolinamido)benzo[b]thiophen-2-yl)acrylic acid hydrochloride] | – | > 20 | 1.81 | – | 6.8 | 18.2 |
| CC(C)(C)c1ccc(C(=O)Nc2ccc3[nH]c(/C=C/C(=O)O)cc3c2)cc1 [KH-48A, (E)-3-(5-(4-(tert-butyl)benzamido)-1H-indol-2-yl)acrylic acid] | – | > 20 | 3.35 | – | 4.8 | > 100 |
| O=C(O)/C=C/c1cc2cc(NC(=O)C3CCCCC3)ccc2s1 [KH-46A, (E)-3-(5-(cyclohexanecarboxamido)benzo[b]thiophen-2-yl)acrylic acid] | > 20 | > 20 | 4.27 | – | – | > 100 |
| CC(C)(C)c1ccc(C(=O)Nc2ccc3[nH]c(C(=O)NN)cc3c2)cc1 [KH-39E, 4-(tert-butyl)-N-(2-(hydrazinecarbonyl)-1H-indol-5-yl)benzamide] | – | > 20 | 1.67 | – | – | 13.5 |
